Consider 47 compounds from patent publication US20060252744A1 (priority 2005, published 2006).

Where two headings read alike, the source gives them in different places.

The target in data set [1] is T1, human D2 receptors (Homo sapiens, UniProt P14416).
T1 construct: expressed in transfected cells; host or cells: HEK-293T
Briefly: competitive radioligand D2 binding assay, (Methoxy-3H)-raclopride, membranes of transfected HEK-293T cells. The note with it: mean of one or two experiments; butaclamol as control.

In data set [2] the target is human D2 dopamine receptor (Homo sapiens, UniProt P14416). Briefly: R-SAT functional receptor assay, D2 receptor co-expressed with Gαo. Particulars: for Emax: read-out: % basal response (D2 intrinsic activity); for activity at 1 µM: read-out: D2 basal (basal response, no drug = 100%).
The target of data set [3] is human D3 dopamine receptor (Homo sapiens, UniProt P35462). Put plainly: R-SAT functional receptor assay, D3 receptor co-expressed with Gαo. The note with it: for activity at 1 µM: read-out: D3 basal (basal response, no drug = 100%).
The conditions of data set [4]: steady state kinetics in humans given clozapine; cited from earlier work.
Where [5] appears, read: compounds at 1 μM, mean +/− standard error, R-SAT.

Sequence of human D3 dopamine receptor (P35462 whole entry): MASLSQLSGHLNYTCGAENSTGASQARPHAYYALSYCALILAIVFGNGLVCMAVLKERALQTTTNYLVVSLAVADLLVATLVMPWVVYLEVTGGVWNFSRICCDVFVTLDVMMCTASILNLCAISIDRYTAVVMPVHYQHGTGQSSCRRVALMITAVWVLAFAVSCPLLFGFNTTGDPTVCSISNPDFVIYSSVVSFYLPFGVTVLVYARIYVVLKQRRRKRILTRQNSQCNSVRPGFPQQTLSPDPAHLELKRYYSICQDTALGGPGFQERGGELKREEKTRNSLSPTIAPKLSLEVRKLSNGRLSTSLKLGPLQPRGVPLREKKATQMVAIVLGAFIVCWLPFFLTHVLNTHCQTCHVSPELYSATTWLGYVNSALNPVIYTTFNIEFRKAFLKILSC
T1 sequence (P14416 whole entry): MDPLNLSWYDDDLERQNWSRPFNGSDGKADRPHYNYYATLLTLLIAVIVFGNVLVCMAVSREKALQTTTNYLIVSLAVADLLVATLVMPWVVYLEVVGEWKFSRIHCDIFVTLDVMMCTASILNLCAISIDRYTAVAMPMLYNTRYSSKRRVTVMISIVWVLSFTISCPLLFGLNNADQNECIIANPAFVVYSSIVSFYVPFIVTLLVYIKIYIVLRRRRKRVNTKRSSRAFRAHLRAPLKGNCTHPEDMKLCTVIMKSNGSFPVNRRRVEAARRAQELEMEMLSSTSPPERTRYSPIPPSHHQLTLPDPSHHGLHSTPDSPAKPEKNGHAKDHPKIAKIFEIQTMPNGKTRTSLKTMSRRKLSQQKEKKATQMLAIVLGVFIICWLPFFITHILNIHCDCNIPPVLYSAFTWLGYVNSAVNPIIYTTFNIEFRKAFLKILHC
Sequence of human D2 dopamine receptor (P14416 whole entry): as above

By Ki is commonly meant a dissociation constant, usually derived from enzyme kinetics or from competition with a known ligand. A higher Ki goes with a looser hold on the target. Turning to `Fc1ccc2c(c1)N=C(N1CCNCC1)c1ccccc1O2`, affinity in data set [1] was put at a Ki of 501 nM. Also, the Emax in data set [2] came out at 207%.
Consider `N#Cc1ccc2c(c1)N=C(N1CCNCC1)c1ccccc1N2`, for which, in data set [1], the Ki was 5010 nM. The Emax in data set [2] came to 201%.
Regarding `Clc1ccc2c(c1)N=C(N1CCCNCC1)c1ccccc1N2`, the Ki in data set [1] was 2000 nM. Also, the Emax in data set [2] amounted to 172%.
`Fc1ccc2c(c1)N=C(N1CCNCC1)c1ccccc1N2` gave a Ki in data set [1] of 2510 nM. Further, the Emax in data set [2] is 170%.
In turn, `Brc1ccc2c(c1)N=C(N1CCNCC1)c1ccccc1O2` showed a Ki in data set [1] of 126 nM. The Emax in data set [2] is 155%.
In data set [1], `Clc1ccc2c(c1)N=C(N1CCNCC1)c1ccccc1O2` showed a Ki of 251 nM. The Emax in data set [2] is 150%.
The like results for `Brc1ccc2c(c1)N=C(N1CCNCC1)c1ccccc1N2` were, in that order, 158 nM and 147%.
For `Brc1ccc2c(c1)N=C(N1CCNCC1)CCN2`, the Emax in data set [2] was 142%.
Turning to `CN1c2ccc(Cl)cc2N=C(N2CCNCC2)c2ccccc21`, the Ki in data set [1] is 794 nM. The Emax in data set [2] is 141%.
Turning to `Cc1cccc2c1Oc1ccc(F)cc1N=C2N1CCNCC1`, the affinity in data set [1] corresponds to a Ki of 316 nM. In data set [2], the Emax is 126%.
In data set [1], `Cc1cccc2c1Oc1ccc(C(F)(F)F)cc1N=C2N1CCNCC1` gave a Ki of 2510 nM. Further, the Emax in data set [2] stood at 118%.
`Clc1ccc2c(c1)N=C(N1CC3CC1CN3)c1ccccc1N2` (stereo not shown): in data set [1], the Ki was 2510 nM. For the same compound, the Emax in data set [2] amounted to 116%.
The matching figures for `Cc1cccc2c1Oc1ccc(Br)cc1N=C2N1CCNCC1`: 794 nM and 112%.
Consider `Cc1cccc2c1Oc1ccc(Cl)cc1N=C2N1CCNCC1`, for which the affinity in data set [1], expressed as Ki, was 316 nM. In data set [2], the Emax was determined as 106%.
Compound `Clc1ccc2c(c1)N=C(NC[C@@H]1CCCN1)c1ccccc1N2` had a Ki in data set [1] of 1580 nM. Further, in data set [2], the Emax is 105%.
Regarding `Cc1cccc2c1Nc1ccc(Cl)cc1N=C2N1CCNCC1`, affinity in data set [1] was put at a Ki of 6310 nM. For the same compound, the Emax in data set [2] stood at 102%.
The compound `Clc1ccc2c(c1)N=C(N1CCNCC1)c1ccccc1C2` showed a Ki in data set [1] of 12.6 nM. Also, in data set [2], the Emax came out at 260%.
As to `CCN1CCC[C@H]1CNC(=O)c1c(O)c(Cl)cc(Cl)c1OC` (racemic) [S(−)-raclopride], the “D2 basal (basal response, no drug = 100%)” value in data set [2] (setting [5]) is 60− %. Moreover, the “D3 basal (basal response, no drug = 100%)” value in data set [3] (setting [5]) is listed as 56− %.
As for `OCCN1CCN([C@@H]2C[C@@H](c3ccc(F)cc3)c3ccc(C(F)(F)F)cc32)CC1` (racemic) [tefludazine], the activity at 1 µM was 67% in data set [2] and 47% in data set [3].
As usually defined, the EC50 is the concentration that produces a half-maximal response. In the case of `Clc1ccc2c(c1)N=C(N1CCNCC1)c1ccccc1N2` [N-desmethylclozapine, 8-chloro-11-(1-piperazinyl)-5H-dibenzo[b,e][1,4]diazepine], the “share of NDMC in total serum clozapine concentrations” value in data set [4] was 40-75%. Moreover, the EC50 in data set [2] was 31.6 nM. Further, in data set [2] (R-SAT), the “intrinsic activity at D2 receptor (in words)” value is reported as “partial agonist” and the “relative efficacy to pergolide at D2” value was 34%. The “D2 basal (basal response, no drug = 100%)” value in data set [2] (setting [5]) was 229 +/− 21%. In addition, in data set [3], the EC50 was 100 nM and the activity at 1 µM was found to be 188%. In data set [3] (R-SAT), the “intrinsic activity at D3 receptor (in words)” value is listed as “partial agonist” and the “relative efficacy to pergolide at D3” value amounted to 40%.
Regarding `O=C(CCCN1CCC(O)(c2ccc(Br)cc2)CC1)c1ccc(F)cc1` [bromperidol], the activity at 1 µM in data set [2] came out at 46%; in data set [3], 43%.
On to `CC(C)(C)[C@]1(O)CCN2C[C@H]3c4ccccc4CCc4cccc(c43)[C@@H]2C1` [butaclamol], for which the “D2 basal (basal response, no drug = 100%)” value in data set [2] (setting [5]) is listed as 60 +/− 2%.
In the case of `CCN(CC)CCCN1c2ccccc2Sc2ccc(Cl)cc21` [chlorproethazine], in data set [2] (setting [5]), the “D2 basal (basal response, no drug = 100%)” value is listed as 60 +/− 7%. The “D3 basal (basal response, no drug = 100%)” value in data set [3] (setting [5]) is given as 63 +/− 10%.
On to `OCCN1CCN(CC/C=C2/c3ccccc3Sc3ccc(C(F)(F)F)cc32)CC1` [cis-flupenthixol], for which, in data set [2], the “D2 basal (basal response, no drug = 100%)” value is reported as 59 +/− 4%.
`OCCN1CCN(CCCN2c3ccccc3Sc3ccc(C(F)(F)F)cc32)CC1` [fluphenazine]: the results for the activity at 1 µM in data set [2] and in data set [3] were 61% and 55%, respectively.
On to `O=C1NCN(c2ccccc2)C12CCN(CCCC(c1ccc(F)cc1)c1ccc(F)cc1)CC2` [fluspirilene], for which the activity at 1 µM in data set [2] was 52%; in data set [3] it was 45%.
Regarding `CC1CCN(CCCC(=O)c2ccc(F)cc2)CC1` [melperone], the activity at 1 µM came out at 76% in data set [2] and 75% in data set [3].
`CCc1c(C)[nH]c2c1C(=O)C(CN1CCOCC1)CC2` (stereo not shown) [molindone]: the values for the activity at 1 µM in data set [2] and in data set [3] were 70% and 65%, respectively.
For the compound `Cc1ccc(C2(O)CCN(CCCC(=O)c3ccc(F)cc3)CC2)cc1` [moperone], the activity at 1 µM in data set [2] came out at 64%; in data set [3], 52%.
`Cc1nc2c(C)cccn2c(=O)c1CCN1CCC(c2noc3cc(F)ccc23)CC1` [ocaperiodone]: the “D2 basal (basal response, no drug = 100%)” value in data set [2] (setting [5]) is given as 62 +/− 8%. Further, the “D3 basal (basal response, no drug = 100%)” value in data set [3] (setting [5]) is listed as 51 +/− 10%.
Consider `CN1CCN(C2Cc3ccccc3Sc3ccc(Cl)cc32)CC1.O=C(O)/C=C\C(=O)O` (stereo not shown) [octoclothepin], for which, in data set [3], the “D3 basal (basal response, no drug = 100%)” value is 60 +/− 8%.
On to `Cc1cc2c(s1)Nc1ccccc1N=C2N1CCN(C)CC1` [olanzapine], for which, in data set [2], the “D2 basal (basal response, no drug = 100%)” value is 83 +/− 6%. In addition, the “D3 basal (basal response, no drug = 100%)” value in data set [3] (setting [5]) is 83 +/− 6%.
With `CN1CCN(C2=Nc3ccccc3Cc3ccccc32)CC1` [perlapine], the activity at 1 µM stood at 58% in data set [2] and 74% in data set [3].
In the case of `O=c1[nH]c2ccccc2n1C1CCN(CCCC(c2ccc(F)cc2)c2ccc(F)cc2)CC1` [pimozide], the values for the activity at 1 µM in data set [2] and in data set [3] were 43% and 54%, respectively.
On to `CN1CCN(CCCN2c3ccccc3Sc3ccc(Cl)cc32)CC1` [prochlorperazine], for which the activity at 1 µM in data set [2] was 57%; in data set [3], 53%.
As for `CN(C)CCCN1c2ccccc2Sc2ccccc21` [promazine], the activity at 1 µM came to 76% in data set [2] and 83% in data set [3].
For the compound `Cc1nc2n(c(=O)c1CCN1CCC(c3noc4cc(F)ccc34)CC1)CCCC2` [risperidone], the “D2 basal (basal response, no drug = 100%)” value in data set [2] was 63 +/− 2%.
On to `O=C1NCCN1CCN1CCC(c2cn(-c3ccc(F)cc3)c3ccc(Cl)cc23)CC1` [sertindole], for which, in data set [2], the activity at 1 µM worked out at 61%.
On to `O=C(CCCN1CCC2(CC1)C(=O)NCN2c1ccccc1)c1ccc(F)cc1` [spiperone], for which, in data set [2], the “D2 basal (basal response, no drug = 100%)” value was 51 +/− 1%.
As for `CCN1CCCC1CNC(=O)c1cc(S(N)(=O)=O)ccc1OC` (stereo not shown) [sulpiride], in data set [2], the activity at 1 µM is 59%. In data set [3] (setting [5]), the “D3 basal (basal response, no drug = 100%)” value was 55 +/− 9%.
As to `CSc1ccc2c(c1)N(CCC1CCCCN1C)c1ccccc1S2` (stereo not shown) [thioridazine], the activity at 1 µM in data set [2] and in data set [3] was 81% each time.
Turning to `CN1CCN(CC/C=C2/c3ccccc3Sc3ccc(S(=O)(=O)N(C)C)cc32)CC1` [thiothixene], the activity at 1 µM in data set [2] was determined as 73%; in data set [3], 68%.
On to `CCN(CC)CCNC(=O)c1cc(S(C)(=O)=O)ccc1OC` [tiapride], for which the activity at 1 µM in data set [2] came out at 65%; in data set [3], 57%.
`OCCN1CCN(CC/C=C2\c3ccccc3Sc3ccc(C(F)(F)F)cc32)CC1` [trans-(e)-flupenthixol]: the “D2 basal (basal response, no drug = 100%)” value in data set [2] is given as 68 +/− 4%.
In the case of `CN1CCN(CCCN2c3ccccc3Sc3ccc(C(F)(F)F)cc32)CC1` [trifluoperazine], the activity at 1 µM in data set [2] is 58%.
Regarding `O=C(CCCN1CCC(O)(c2cccc(C(F)(F)F)c2)CC1)c1ccc(F)cc1` [trifluperidol], the activity at 1 µM in data set [2] was found to be 58%; in data set [3], 54%.
For the compound `O=C1Cc2cc(CCN3CCN(c4nsc5ccccc45)CC3)c(Cl)cc2N1` [ziprasidone], in data set [2] (setting [5]), the “D2 basal (basal response, no drug = 100%)” value was 66 +/− 8%.
